We go through two compounds from patent publication US10815276B2, “Cell penetrating peptides and methods of making and using thereof” (Entrada Therapeutics, Inc., priority 2014, dated 2020).

Starred links: 1 amine or outer side, 2 acyl side, 3 side chain; linkers in the order of their positions; H or OH if unused. Positions of bridges follow the written chain, without caps; N, C: chain ends. Non-standard residues stand in square brackets, D forms with d. Residues, ends and D or L forms follow the SMILES beside them. No end group written: not given here. Trimesoyl = O=C(c1cc(C(=O)[*:2])cc(C(=O)[*:3])c1)[*:1]; Phe(4-F) = N[C@@H](Cc1ccc(F)cc1)C(=O)O; dPhe(4-F) = N[C@H](Cc1ccc(F)cc1)C(=O)O; 2Nal = N[C@@H](Cc1ccc2ccccc2c1)C(=O)O; Pip = O=C(O)[C@@H]1CCCCN1; Dap = NC[C@H](N)C(=O)O Some results are limits rather than exact numbers.

Experiment [1] has as its target T1, recombinant caspase-3 enzyme (Homo sapiens, UniProt P42574).
T1 construct: purchased EMD Chemicals (San Diego, Calif.)
T1 sequence (P42574 29-175 limits assumed): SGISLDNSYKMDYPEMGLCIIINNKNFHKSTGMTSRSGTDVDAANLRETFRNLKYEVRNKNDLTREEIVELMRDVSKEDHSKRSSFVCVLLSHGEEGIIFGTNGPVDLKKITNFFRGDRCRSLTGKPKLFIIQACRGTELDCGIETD
T1 sequence (P42574 176-277 limits assumed): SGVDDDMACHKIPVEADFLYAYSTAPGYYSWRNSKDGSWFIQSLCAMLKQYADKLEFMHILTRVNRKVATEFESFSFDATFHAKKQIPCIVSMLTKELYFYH
Briefly: In vitro fluorimetric caspase assay. The class given is biochemical. Particulars: 10 μM substrate, 10 mM DTT. The source says:
Reagents for peptide synthesis were purchased from Advanced ChemTech (Louisville, Ky.), NovaBiochem (La Jolla, Calif.), or Anaspec (San Jose, Calif.). Rink resin LS (100-200 mesh, 0.2 mmol/g) was purchased from Advanced ChemTech. Dextrane^Rho, trypsin and α-chymotrypsin were purchased from Sigma-Aldrich (St. Louis, Mo.). Cell culture media, fetal bovine serum, penicillin-streptomycin, 0.25% trypsin-EDTA, and DPBS were purchased from Invitrogen (Carlsbad, Calif.). Nuclear staining dye DRAQ5 was purchased from Thermo Scientific (Rockford, Ill.). Caspase-3, Human, recombinant protein was purchased from EMD Chemicals (San Diego, Calif.).
0.5 μL (100 U/μL) caspase-3 enzyme was first incubated with 90 μL of reaction buffer (50 mM HEPES, pH 7.4, 100 mM NaCl, 10 mM DTT) for 30 min in 96-well plate. Fluorogenic substrates (10 μL, 100 μM) were mixed into the above solutions to start the reactions, and the plate was measured on a Spectramax M5 plate reader (Ex=360 nm, Em=440 nm) (Molecular Devices). Fluorescence units (FU) increase at one-minute intervals was correlated to the release of Amc due to protease activity. The ΔFU/min was calculated from the linear portion of the reaction curve. Reported values are averages of three trials with the standard deviation indicated.

Experiment [2] concerns the target T2, Pin1 (Homo sapiens, UniProt Q13526, S16A/Y23A).
T2 construct: The full-length human S16A/Y23A mutant Pin1 was expressed and purified from E. coli; made in house
As to the kind of experiment: Pin1 binding by FA (FITC-labeled peptides). Particulars: FITC-labeled peptide, FA; read-out: KD.
Procedure: FA experiments were carried out by incubating 100 nM FITC-labeled peptide with varying concentrations of protein in 20 mM HEPES (pH 7.4), 150 mM NaCl, 2 mM magnesium acetate, and 0.1% bovine serum albumin (BSA) for 2 h at room temperature. The FA values were measured on a Molecular Devices Spectramax M5 plate reader, with excitation and emission wavelengths at 485 and 525 nm, respectively. Equilibrium dissociation constants (KD) were determined by plotting the FA values as a function of protein concentration and fitting the curve to the following equation:

In experiment [3] the target is T2, Pin1. Briefly: FA competition with FITC-labeled peptide 1. Particulars: 100 nM FITC-labeled peptide 1, 400 nM Pin1; read-out: IC50 for inhibiting binding of peptide 1 to Pin1. Here is the method: (§1) (FIG. 37A) Binding to FITC-labeled peptide 37 to Pin1 as analyzed by fluorescent anisotropy (FA). (FIG. 37B) Competition between peptide 37 and FITC-labeled peptide 1 (100 nM) for binding to Pin1 (400 nM) as monitored by FA. (FIG. 37C) Effect of peptide 37 on the cis-trans isomerase activity of Pin1, Pin4, FKBP12, and cyclophilin A using Suc-Ala-Glu-Pro-Phe-pNA as substrate. (FIG. 37D) Comparison of the serum stability of peptides 1 and 37.
(§2) To determine whether peptide 37 binds to the catalytic site of Pin1, its ability to compete with peptide 1 for binding to Pin1 by FA analysis was examined. […] Next, the catalytic activity of Pin1 toward a peptide substrate, Suc-Ala-Glu-Pro-Phe-pNA, in the presence of increasing concentrations of peptide 37 was monitored.

The target of experiment [4] is T2, Pin1. Briefly: cis-trans isomerase activity, Suc-Ala-Glu-Pro-Phe-pNA. The class given is biochemical. Particulars: substrate Suc-Ala-Glu-Pro-Phe-pNA; read-out: IC50 for Pin1 catalytic activity. Here is the method: as §1, §2
Experiment [5] addresses bovine serum albumin (BSA) (Bos taurus, UniProt P02769). As to the kind of experiment: biochemical. The class given is binding. Here is the method:
(§3) The selectivity of peptide 37 was assessed by two different tests. First, peptide 37 was tested for binding to a panel of arbitrarily selected proteins including bovine serum albumin (BSA), protein tyrosine phosphatases 1B, SHP1, and SHP2, the Grb2 SH2 domain, Ras, and tumor necrosis factor-a. […] Peptide 37 was next tested for potential inhibition of Pin4, FKBP12, and cyclophilin A, the three other common human peptidyl-prolyl cis-trans isomerases. […] Peptide 37 had no effect on the catalytic activity of FKBP12 or cyclophilin A up to 5 μM concentration.

The next experiment addresses T3, Grb2 SH2 domain (Homo sapiens, UniProt P62993).
T3 construct: the Grb2 SH2 domain
Briefly: Selectivity panel binding. Here is the method:
as §3

The next experiment relates to Ras. Briefly: Selectivity panel binding. Here is the method:
as §3

Another experiment concerns the target SHP1 (Homo sapiens, UniProt P29350). Briefly: Selectivity panel binding. On the procedure: as §3
In a further experiment the target is SHP2 (Homo sapiens, UniProt Q06124). Briefly: Selectivity panel binding. Here is the method:
as §3

Experiment [6] concerns the target protein tyrosine phosphatases 1B (Homo sapiens, UniProt P18031). Briefly: Selectivity panel binding. Here is the method: as §3
The target in another experiment is tumor necrosis factor-a (Homo sapiens, UniProt P01375). As to the kind of experiment: Selectivity panel binding. On the procedure:
as §3

For a further experiment, the target named is FKBP12 (Homo sapiens, UniProt P62942). As to the kind of experiment: cis-trans isomerase activity. Type of experiment: biochemical. As to conditions: up to 5 μM. On the procedure:
as §1, §3

A further experiment concerns the target Pin4 (Homo sapiens, UniProt Q9Y237). Briefly: cis-trans isomerase activity. The class given is biochemical. On the procedure: as §1, §3
The next experiment concerns the target cyclophilin A (Homo sapiens, UniProt P62937). As to the kind of experiment: cis-trans isomerase activity. Type of experiment: biochemical. Particulars: up to 5 μM. On the procedure:
as §1, §3

Experiment [7] concerns HeLa cells. As to the kind of experiment: Cellular uptake by flow cytometry. Type of experiment: cell-based, human. Here is the method: The cellular uptake efficiency of peptide 37, peptide 1, and a previously reported membrane-impermeable monocyclic Pin1 inhibitor (Table 18, peptide 46) was assessed by incubating HeLa cells with the FITC-labeled peptides (5 μM) for 2 h and quantifying the total intracellular fluorescence by flow cytometry analysis. […] By contrast, cells treated with peptides 1 and 37 gave MFI values of 2562 and 8792, respectively. Thus, peptide 37 is internalized by HeLa cells ˜4-fold more efficiently than peptide 1. Presumably, the negative charged phosphate group of peptide 1 interacted electrostatically with the positively charged CPP motif and reduced the cellular uptake efficiency of the latter.
(In general: In flow cytometry, cells or beads pass a laser one at a time.)

The test system of experiment [8] is HeLa cells. As to the kind of experiment: Western blot of PML protein level. The class given is cell-based, human. On the procedure:
FIGS. 38A, 38B, 38C, and 38D display cellular activity of peptide 37. (FIG. 38A) Cellular uptake of peptides 1, 37, and 46 (5 μM) by HeLa cells as analyzed by flow cytometry. MFI, mean fluorescence intensity; none, untreated cells (no peptide). (FIG. 38B) Anti-proliferative effect of peptides 37, 46, and 47 on HeLa cells as measured by MTT assay. (FIG. 38C) Western blots showing the effect of peptides 1, 37 and 47 on the protein level of PML in HeLa cells. β-Actin was used as loading control. (FIG. 38D) Quantification of western blot results from (FIG. 38C). Data reported were after background subtraction and represent the mean±SD from 3 independent experiments.
Finally, to ascertain that Pin1 is the molecular target of peptide 37 in vivo, the intracellular protein level of a well-established Pin1 substrate, […] (PML), was examined by western blot analysis. Pin1 negatively regulates the PML level in a phosphorylation-dependent manner and inhibition of Pin1 activity is expected to stabilize PML and increase its intracellular level. […] The effect was already significant at 0.2 μM inhibitor (1.8-fold increase in the PML level) and plateaued at ˜1 μM (3.3-fold increase). Again, bicyclic peptide 47 had no effect under the same conditions, while peptide 1 (the positive control, at 5 μM) increased the PML level by 3.1-fold.
In general terms: Immunoblotting shows a protein as a band on a membrane.

The subject of experiment [9] is HeLa cells.
Source text: The effect of peptide 37 on the growth of HeLa cells was examined by using the MTT cell viability assay.

T2 sequence (Q13526 whole entry S16A/Y23A): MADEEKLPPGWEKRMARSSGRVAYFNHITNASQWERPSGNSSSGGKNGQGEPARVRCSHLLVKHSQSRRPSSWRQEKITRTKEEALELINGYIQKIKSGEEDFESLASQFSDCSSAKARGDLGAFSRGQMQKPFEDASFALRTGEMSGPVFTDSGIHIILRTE
Pin4, sequence (Q9Y237 whole entry): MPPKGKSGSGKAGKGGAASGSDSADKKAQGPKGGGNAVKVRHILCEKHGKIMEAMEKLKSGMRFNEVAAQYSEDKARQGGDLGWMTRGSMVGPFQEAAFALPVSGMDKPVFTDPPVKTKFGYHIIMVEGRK
SHP1, sequence (P29350 whole entry): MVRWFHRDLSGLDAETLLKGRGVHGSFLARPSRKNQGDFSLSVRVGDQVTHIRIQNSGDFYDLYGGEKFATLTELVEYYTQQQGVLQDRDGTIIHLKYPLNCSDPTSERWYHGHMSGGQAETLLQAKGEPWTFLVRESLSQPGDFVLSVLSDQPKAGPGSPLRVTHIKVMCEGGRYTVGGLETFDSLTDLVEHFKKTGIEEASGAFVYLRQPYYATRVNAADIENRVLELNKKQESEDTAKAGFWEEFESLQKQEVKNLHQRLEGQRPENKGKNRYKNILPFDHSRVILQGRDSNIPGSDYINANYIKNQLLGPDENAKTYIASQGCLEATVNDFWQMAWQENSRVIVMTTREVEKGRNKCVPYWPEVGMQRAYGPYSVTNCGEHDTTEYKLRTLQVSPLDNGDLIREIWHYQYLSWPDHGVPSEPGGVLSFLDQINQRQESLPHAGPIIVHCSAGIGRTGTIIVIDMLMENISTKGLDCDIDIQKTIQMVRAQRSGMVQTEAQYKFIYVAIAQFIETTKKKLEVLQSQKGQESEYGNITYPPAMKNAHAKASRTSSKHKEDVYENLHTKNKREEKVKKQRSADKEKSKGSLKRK
cyclophilin A, sequence (P62937 whole entry): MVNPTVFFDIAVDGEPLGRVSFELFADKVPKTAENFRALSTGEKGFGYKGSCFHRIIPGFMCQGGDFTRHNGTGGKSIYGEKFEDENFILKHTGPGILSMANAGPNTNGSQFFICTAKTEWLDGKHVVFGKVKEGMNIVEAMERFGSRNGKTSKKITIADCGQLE
tumor necrosis factor-a, sequence (P01375 77-233 limits assumed): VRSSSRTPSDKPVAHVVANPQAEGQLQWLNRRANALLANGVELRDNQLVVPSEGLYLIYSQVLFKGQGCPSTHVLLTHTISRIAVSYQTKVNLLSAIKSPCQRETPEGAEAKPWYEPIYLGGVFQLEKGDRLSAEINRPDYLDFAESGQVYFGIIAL
bovine serum albumin (BSA), sequence (P02769 25-607): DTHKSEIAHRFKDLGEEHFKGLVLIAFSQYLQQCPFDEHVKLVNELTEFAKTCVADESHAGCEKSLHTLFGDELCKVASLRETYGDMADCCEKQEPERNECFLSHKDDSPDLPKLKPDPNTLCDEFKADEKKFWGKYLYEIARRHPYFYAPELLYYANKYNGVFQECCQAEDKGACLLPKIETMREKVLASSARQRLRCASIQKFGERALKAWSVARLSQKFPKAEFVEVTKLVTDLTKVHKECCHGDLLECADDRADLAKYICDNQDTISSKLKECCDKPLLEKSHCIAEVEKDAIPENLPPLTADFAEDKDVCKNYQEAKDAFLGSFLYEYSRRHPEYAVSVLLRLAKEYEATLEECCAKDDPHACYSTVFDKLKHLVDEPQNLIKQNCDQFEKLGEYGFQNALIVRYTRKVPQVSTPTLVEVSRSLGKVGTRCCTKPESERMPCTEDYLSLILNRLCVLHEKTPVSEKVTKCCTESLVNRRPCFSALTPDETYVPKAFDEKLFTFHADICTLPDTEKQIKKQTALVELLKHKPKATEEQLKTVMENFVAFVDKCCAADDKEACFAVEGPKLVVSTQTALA
T3 sequence (P62993 60-152 limits assumed): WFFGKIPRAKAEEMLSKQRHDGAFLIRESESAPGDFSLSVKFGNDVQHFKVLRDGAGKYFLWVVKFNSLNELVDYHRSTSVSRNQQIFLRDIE
SHP2, sequence (Q06124 whole entry, species assumed): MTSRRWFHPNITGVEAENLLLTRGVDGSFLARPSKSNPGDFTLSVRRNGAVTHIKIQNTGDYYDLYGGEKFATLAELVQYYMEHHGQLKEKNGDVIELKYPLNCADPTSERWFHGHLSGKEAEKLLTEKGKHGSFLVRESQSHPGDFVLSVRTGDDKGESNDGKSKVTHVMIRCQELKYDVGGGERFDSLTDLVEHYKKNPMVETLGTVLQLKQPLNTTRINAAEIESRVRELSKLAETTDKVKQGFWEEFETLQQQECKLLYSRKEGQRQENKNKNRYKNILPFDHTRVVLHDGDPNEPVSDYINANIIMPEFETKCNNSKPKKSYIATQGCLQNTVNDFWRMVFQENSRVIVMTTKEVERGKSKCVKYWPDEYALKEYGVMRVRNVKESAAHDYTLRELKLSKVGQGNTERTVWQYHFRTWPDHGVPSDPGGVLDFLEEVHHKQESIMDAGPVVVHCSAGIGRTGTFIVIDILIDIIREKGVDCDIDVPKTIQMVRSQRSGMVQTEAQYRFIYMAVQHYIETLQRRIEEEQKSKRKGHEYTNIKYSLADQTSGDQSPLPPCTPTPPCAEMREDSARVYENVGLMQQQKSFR
protein tyrosine phosphatases 1B, sequence (P18031 whole entry): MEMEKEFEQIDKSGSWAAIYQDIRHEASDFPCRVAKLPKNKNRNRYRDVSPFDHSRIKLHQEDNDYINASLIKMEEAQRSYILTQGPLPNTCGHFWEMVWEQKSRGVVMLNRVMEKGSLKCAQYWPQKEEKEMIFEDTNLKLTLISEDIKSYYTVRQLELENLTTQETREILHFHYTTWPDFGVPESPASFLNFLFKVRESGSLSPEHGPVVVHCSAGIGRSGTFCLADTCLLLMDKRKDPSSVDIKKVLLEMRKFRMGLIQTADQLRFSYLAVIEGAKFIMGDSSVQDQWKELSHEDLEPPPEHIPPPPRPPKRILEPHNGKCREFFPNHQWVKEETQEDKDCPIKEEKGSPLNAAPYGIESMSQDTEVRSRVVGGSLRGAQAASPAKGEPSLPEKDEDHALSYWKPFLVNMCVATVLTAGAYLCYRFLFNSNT
FKBP12, sequence (P62942 whole entry): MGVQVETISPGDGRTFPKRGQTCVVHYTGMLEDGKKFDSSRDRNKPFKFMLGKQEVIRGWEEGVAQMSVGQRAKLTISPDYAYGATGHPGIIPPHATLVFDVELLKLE

“A^c−RRRRRRRRRDΩUD^−A^mc (not fully specified (N-terminus, C-terminus); printed as Ac−RRRRRRRRRDΩUD−Amc) [Peptide 7 (Example 2)]”: the “In vitro activity against recombinant caspase-3 enzyme, ΔFU/min” value in [1] is given as 45.3 ± 6.5 ΔFU/min.
For orientation: Kd means the constant that tells how readily two partners part at equilibrium. Usually IC50 stands for the point on the concentration scale where inhibition reaches its midpoint. For orientation: inhibition means the share of the control response that was lost under treatment. Low values mean a weak effect, high ones a strong effect. In the case of `C[C@@H]1NC(=O)[C@H](CCCNC(=N)N)NC(=O)[C@H](Cc2ccc3ccccc3c2)NC(=O)[C@@H]2CCCCN2C(=O)[C@@H]([C@H](C)O)NC(=O)[C@H](Cc2ccc(F)cc2)NC(=O)[C@@H](Cc2ccc(F)cc2)NC(=O)c2cc3cc(c2)C(=O)NC[C@H](NC(=O)[C@@H](Cc2ccccc2)NC1=O)C(=O)N[C@@H](Cc1ccccc1)C(=O)N[C@@H](Cc1ccc2ccccc2c1)C(=O)N[C@@H](CCCNC(=N)N)C(=O)N[C@@H](CCCNC(=N)N)C(=O)N[C@@H](CCCNC(=N)N)C(=O)N[C@@H](CCCNC(=N)N)C(=O)N[C@H](C(=O)N[C@@H](CCCCN)C(N)=O)CNC3=O` [Peptide 37, bicyclo[Tm-(D-4-Fpa-Fpa-D-Thr-Pip-Nal-Arg-Ala-D-Phe)-Dap-(Phe-Nal-Arg-Arg-Arg-Arg-Dap)]-Lys] ([dPhe(4-F)][Phe(4-F)][dT][Pip][2Nal]RA[dF][Dap]F[2Nal]RRRR[Dap]K-NH2; linker N-9-16 via Trimesoyl; C-terminus assumed), the Kd on Pin1 [2] is 120 nM; in [5] it was ~20000 nM. The IC50 was 190 nM on Pin1 [3]; 170 nM at Pin1 [4]; ~34000 nM at Pin4 (estimated); 1000 nM with HeLa cells [9] (read-out: IC50 of HeLa cell growth, MTT). Further, on Grb2 SH2 domain, the “Binding to Grb2 SH2 domain” value is reported as “not any of the other six proteins”. In addition, the “Binding to Ras” value in the experiment on Ras is reported as “not any of the other six proteins”. The “Binding to SHP1” value on SHP1 is listed as “not any of the other six proteins”. For the same compound, on SHP2, the “Binding to SHP2” value is listed as “not any of the other six proteins”. Moreover, the “Binding to protein tyrosine phosphatase 1B” value in experiment [6] is reported as “not any of the other six proteins”. For the same compound, the “Binding to tumor necrosis factor-a” value at tumor necrosis factor-a is listed as “not any of the other six proteins”. Also, on FKBP12, the “Effect on catalytic activity of FKBP12” value is listed as “no effect”. The inhibition at 5 µM against Pin4 (5 μM inhibitor) is ~15%. The “Effect on catalytic activity of cyclophilin A” value on cyclophilin A is recorded as “no effect”. Moreover, in the experiment on HeLa cells [7], the “Internalization more efficient than peptide 1” value is given as ~4 fold. Besides, the “Mean fluorescence intensity (MFI)” value in the experiment on HeLa cells [7] (5 μM FITC-labeled peptide, 2 h) is given as 8792. Besides, the “Increase in the PML level” value with HeLa cells [8] (0.2 μM inhibitor) was 1.8 fold. In addition, the “Effect on the PML level” value with HeLa cells [8] (0.2-5 μM) is “concentration-dependent increases in the PML level”. The “Increase in the PML level (plateau)” value with HeLa cells [8] (~1 μM inhibitor) worked out at 3.3 fold. For the same compound, in the experiment on HeLa cells [9] (3-day treatment with 5 μM), the Growth inhibition is given as > 60%.
